Laboratory results published in patent US20230129812A1, “COMPOSITIONS AND METHODS FOR TREATING PULMONARY HYPERTENSION” (Acceleron Pharma Inc., priority 2020, published 2023).
pKd: −log10 of the molar value.

What was measured:
[1] = tested on: pGL3(CAGA)12 reporter gene expression in A-204 cells; assay: A-204 reporter gene assay, stimulation by factors without inhibitors; assay type: cell-based, human; conditions: in the absence of any inhibitors
Text: An A-204 reporter gene assay was used to evaluate the effects of ActRIIB-Fc proteins and ActRIIB variant Fc fusion polypeptides on signaling by GDF-11 and activin A. Cell line: human rhabdomyosarcoma (derived from muscle). Reporter vector: pGL3(CAGA)12 (described in Dennler et al, 1998, EMBO 17: 3091-3100). The CAGA12 motif is present in TGF-beta responsive genes (e.g., PAI-1 gene), so this vector is of general use for factors signaling through SMADs.
Day 1: Split A-204 cells into 48-well plate.
Day 2: A-204 cells transfected with 10 ug pGL3(CAGA)12 or pGL3(CAGA)12(10 ug)+pRLCMV (1 pg) and Fugene.
Day 3: Add factors (diluted into medium+0.1% BSA). Inhibitors need to be preincubated with factors for 1 hr before adding to cells. Six hrs later, cells were rinsed with PBS and lysed.
This is followed by a luciferase assay.

activin A = molecular target: T1, activin A (Homo sapiens, UniProt P08476); assay: Biacore ligand affinity of ActRIIB-hFc forms, steady-state affinity fit; assay type: binding
T1 sequence (P08476 311-426): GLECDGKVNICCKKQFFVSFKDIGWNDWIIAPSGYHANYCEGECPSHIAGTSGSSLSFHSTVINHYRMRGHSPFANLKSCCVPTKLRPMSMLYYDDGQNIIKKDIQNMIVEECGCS
Protocol: (§1) Affinities of several ligands for ActRIIB(25-131)-hFc and its full-length counterpart ActRIIB(20-134)-hFc were evaluated in vitro with a Biacore™ instrument, and the results are summarized in Table 8 below. Kd values were obtained by steady-state affinity fit due to very rapid association and dissociation of the complex, which prevented accurate determination of kon and koff. ActRIIB(25-131)-hFc bound, for example, activin A, activin B, and GDF11 with high affinity.
(§2) The affinity of ActRIIB variants and other ActRIIB-hFc proteins for several ligands was evaluated in vitro with a Biacore™ instrument. Kd values were obtained by steady-state affinity fit due to the very rapid association and dissociation of the complex, which prevented accurate determination of kon and koff.

activin B = molecular target: T2, activin B (Homo sapiens, UniProt P09529); assay: as above; assay type: binding
T2 sequence (P09529 293-407): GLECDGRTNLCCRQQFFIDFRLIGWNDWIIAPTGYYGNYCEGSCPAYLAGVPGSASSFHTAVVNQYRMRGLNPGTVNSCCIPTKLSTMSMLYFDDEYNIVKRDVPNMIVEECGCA
Protocol: as §1, §2

GDF11 = molecular target: T3, GDF11 (Homo sapiens, UniProt O95390); assay: as above; assay type: binding
T3 sequence (O95390 299-407): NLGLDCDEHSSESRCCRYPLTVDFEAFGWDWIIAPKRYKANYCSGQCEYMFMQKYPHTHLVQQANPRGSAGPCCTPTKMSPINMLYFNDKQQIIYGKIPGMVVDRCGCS
Protocol: as §1, §2

[2] = tested on: rat model of pulmonary arterial hypertension (PAH), monocrotaline-induced; assay: Monocrotaline (MCT) rat model of pulmonary arterial hypertension; assay type: in vivo, Sprague Dawley rats; conditions: MCT rats; for improvement in body weight: 28 days; for improvement in body weight / decrease of right heart hypertrophy / decrease of lung weight / reduction of elevated PAP: compared to monocrotaline treated rats (vehicle); for decrease of right heart hypertrophy / decrease of lung weight / reduction of elevated PAP: day 28; for decrease of right heart hypertrophy: RV/LV+S; for smooth muscle hypertrophy of pulmonary arterioles, average histopathological score: 0 (normal), 1 (minimal), 2 (mild), 3 (moderate), 4 (marked); for pulmonary arterioles completely muscularized / pulmonary arterioles non-muscularized / pulmonary arterioles partially muscularized: αSMA/elastin staining, 100 arterioles per animal
Protocol: The effects of an ActRIIA-mFc fusion protein (ActRIIA-mFc homodimer as described in Example 1), an ALK4-Fc-ActRIIB-Fc heterodimer (as described in Examples 12 and 13), and sildenafil (a phosphodiesterase-5 inhibitor approved for the treatment of PAH) were examined in a rat model of pulmonary arterial hypertension (PAH). In this model, Sprague Dawley rats received a […] injection of monocrotaline (MCT) to induce PAH 24 hours prior to start of therapy.
Rats were separated into different treatment groups (10 mice per group): 1) treatment with MCT (60 mg/kg administered i.p. as a single dose at day 1 of study) and Tris buffered saline (i.p. as 1 ml/kg, every three days) (vehicle treatment group), 2) treatment with an ActRIIA-mFc polypeptide (10 mg/kg administered i.p. every three days) and MCT (60 mg/kg administered i.p. as a single dose at day 1 of study), 3) treatment with an ALK4-Fc:ActRIIB-Fc heterodimer (10 mg/kg administered i.p. every three days) and MCT (60 mg/kg administered i.p. as a single dose at day 1 of study), 4) treatment with sildenafil (30 mg/kg administered orally twice daily) and MCT (60 mg/kg administered i.p. as a single dose at day 1 of study), and 5) control rats (Tris buffered saline administered i.p. as 1 ml/kg, every three days). Rats were treated for 28 days. Body weights were recorded prior to first dose on Day 1 and then weekly throughout the study.
(§3) On day 28, rats were anesthetized by an intraperitoneal injection of ketamine/xylazine (80/10 mg/kg). An incision was made in the neck, and a jugular vein was isolated and ligated anteriorly. A fluid-filled pressure catheter was introduced into the right jugular vein to measure pulmonary artery pressure (PAP). Another incision was made in the inguinal region, and femoral artery was isolated and ligated anteriorly. A Millar pressure catheter was introduced into a femoral artery to measure systolic arterial pressure, diastolic pressure, and heart rate. Mean arterial pressure and right PAP were monitored using the Notocord HEM (Croissy sur Seine, Frnace) v3.5 data capture system for approximately 5-10 minutes until stable measurements were obtained. During the measurements, rats were maintained at approximately 37° C. on a heating pad and body temperature was monitored throughout the procedure with a rectal temperature probe. At the conclusion of the procedure, rats were euthanized, and the hearts and lungs were removed. The entire heart was weighed. Next, the atria were removed and the left ventricle with septum (LV+S) was separated from the right ventricle (RV). The ventricles were weighed separately. Hypertrophy was assessed, in part, by calculating RV/LV+S. The lungs were also weighed.
(§4) Similar trends were observed on vessel muscularity based on histopathologic scoring. After staining tissue samples to detect αSMA/elastin, 100 pulmonary arterioles, between 10 μm and 50 m in size, per animal were categorized as non-muscularized, partially muscularized, or completely muscularized. Pulmonary arterioles from vehicle treated rats were determined to be 62.3% completely muscularized, 36.4% partially muscularized, and 1.4% non-muscularized. […] Histopathological scoring of smooth muscle hypertrophy of pulmonary arterioles were also recorded as follows: 0 (normal), 1 (minimal), 2 (mild), 3 (moderate), or 4 (marked).

[3] = tested on: Sugen Hypoxia model of PAH; assay: Sugen Hypoxia rat model of PAH (semaxanib/hypoxia); assay type: in vivo; conditions: Sugen Hypoxia rats; for decrease of right heart hypertrophy / reduction of mean pulmonary arterial pressure: day 28, compared to vehicle treated animals; for smooth muscle hypertrophy of pulmonary arterioles, average histopathological score: 0 (normal), 1 (minimal), 2 (mild), 3 (moderate), 4 (marked); for pulmonary arterioles completely muscularized / pulmonary arterioles non-muscularized / pulmonary arterioles partially muscularized: αSMA/elastin staining, 100 arterioles per animal
Protocol: The effects of an ActRIIA-mFc fusion protein (ActRIIA-mFc homodimer as described in Example 1 and sildenafil (a phosphodiesterase-5 inhibitor approved for the treatment of PAH) were further examined the Sugen Hypoxia model of PAH. In this model, rats receive daily doses of semaxanib and are placed in a low oxygen environment (approximately 13% oxygen) to induce PAH 24 hours prior to start of therapy.
Rats were separated into different treatment groups (10 mice per group): 1) treatment with semaxanib (200 mg/kg administered s.c. as a single dose daily)/hypoxia and Tris buffered saline (administered i.p. as 1 ml/kg, every three days) (vehicle treatment group), 2) treatment with an ActRIIA-mFc polypeptide (10 mg/kg administered i.p. every three days) and semaxanib (200 mg/kg administered s.c. as a single dose daily)/hypoxia, 3) treatment with sildenafil (30 mg/kg administered orally twice daily) and semaxanib (200 mg/kg administered s.c. as a single dose daily)/hypoxia, and 4) control rats (Tris buffered saline administered i.p. as 1 ml/kg, every three days). Rats were treated for 28 days. Body weights were recorded prior to first dose on Day 1 and then weekly throughout the study.
as §3
as §4, with “[…]” for “μm”, “72.5%” for “62.3%”, “27.4%” for “36.4%”, “0.1%” for “1.4%”

Row | Compound | ED50 [1] [ng/mL] | stimulation of reporter gene expression [1] [fold] | improvement in body weight [2] | decrease of right heart hypertrophy [2] [%] | decrease of lung weight [2] [%] | reduction of elevated PAP [2] [%] | smooth muscle hypertrophy of pulmonary arterioles, average histopathological score [2] | pulmonary arterioles completely muscularized [2] [%] | pulmonary arterioles non-muscularized [2] [%] | pulmonary arterioles partially muscularized [2] [%] | decrease of right heart hypertrophy [3] [%] | reduction of mean pulmonary arterial pressure [3] [%] | smooth muscle hypertrophy of pulmonary arterioles, average histopathological score [3] | pulmonary arterioles completely muscularized [3] [%] | pulmonary arterioles non-muscularized [3] [%] | pulmonary arterioles partially muscularized [3] [%] | other results
1 | GDF-11: TGF-beta superfamily ligand added as factor in the A-204 reporter gene assay | ~1.5 | 16 |  |  |  |  |  |  |  |  |  |  |  |  |  |  | 
2 | activin A: TGF-beta superfamily ligand added as factor in the A-204 reporter gene assay | ~2 | 10 |  |  |  |  |  |  |  |  |  |  |  |  |  |  | 
3 | ActRIIB(25-131)-hFc: human ActRIIB extracellular domain with N- and C-terminal truncations (residues 25-131) fused to human Fc via three glycines |  |  |  |  |  |  |  |  |  |  |  |  |  |  |  |  | activin A binding (activin A; Biacore): high affinity; pKd (activin A; Table 12, Kd by steady-state affinity fit, read-out: Activin A (Kd e−11)): 10.74; activin B binding (activin B; Biacore): high affinity; pKd (activin B; Table 12, Kd by steady-state affinity fit, read-out: Activin B (Kd e−11)): 10.92; GDF11 binding (GDF11; Biacore): high affinity; pKd (GDF11; Table 12, Kd by steady-state affinity fit, read-out: GDF11 (Kd e−11)): 10.51
4 | CCCc1nn(C)c2c(=O)[nH]c(-c3cc(S(=O)(=O)N4CCN(C)CC4)ccc3OCC)nc12 [sildenafil, reference compound] |  |  | did not have any improvement in body weight | 18.5 | 10 | 30 | 3 | 57.9 | 0.9 | 41.6 | 10 | 22.4 | 3 | 67.4 | 1.0 | 31.6 | 
5 | ActRIIA-mFc: extracellular domain of human ActRIIa fused to a mouse Fc domain with a minimal linker; homodimer |  |  | did not show improvement in body weight | 47.1 | 18.4 | 68 | 1.6 | 25.8 | 7.3 | 66.9 | 53.5 | 51.3 | 1.4 | 29.3 | 1.4 | 69.3 | 
